Measurements: paper PMC6914789 (Scientific Reports, 2019)

Legend:
Sirt1 = target: T1, Sirt1 (Homo sapiens, UniProt Q96EB6); assay: MS deacetylation assay with acetyl-p53 peptide; assay type: biochemical
T1 construct: Full length human Sirt1
T1 sequence (Q96EB6 2-747): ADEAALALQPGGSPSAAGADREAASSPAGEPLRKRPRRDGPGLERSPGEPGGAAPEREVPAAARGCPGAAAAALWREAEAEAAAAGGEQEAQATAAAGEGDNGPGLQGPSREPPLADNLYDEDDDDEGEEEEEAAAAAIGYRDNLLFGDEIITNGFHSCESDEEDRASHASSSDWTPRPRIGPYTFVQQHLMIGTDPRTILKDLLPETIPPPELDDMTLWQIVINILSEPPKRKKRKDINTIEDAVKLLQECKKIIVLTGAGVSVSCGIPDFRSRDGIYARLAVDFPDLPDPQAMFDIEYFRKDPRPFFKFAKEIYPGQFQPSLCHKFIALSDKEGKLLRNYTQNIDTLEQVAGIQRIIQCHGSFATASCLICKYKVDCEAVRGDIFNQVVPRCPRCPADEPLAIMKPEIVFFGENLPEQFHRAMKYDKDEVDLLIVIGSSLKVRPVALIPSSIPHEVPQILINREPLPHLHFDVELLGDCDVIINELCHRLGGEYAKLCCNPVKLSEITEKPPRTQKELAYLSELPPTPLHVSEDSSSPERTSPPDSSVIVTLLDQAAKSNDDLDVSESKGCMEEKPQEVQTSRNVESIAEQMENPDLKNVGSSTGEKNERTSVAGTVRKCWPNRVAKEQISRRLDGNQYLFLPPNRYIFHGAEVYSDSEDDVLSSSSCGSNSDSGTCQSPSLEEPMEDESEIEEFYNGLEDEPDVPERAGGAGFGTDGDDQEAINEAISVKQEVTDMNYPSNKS

Sirt5 = target: T2, Sirt5 (Homo sapiens, UniProt Q9NXA8); assay: MS desuccinylation assay with succinyl-CPS1 peptide; assay type: biochemical
T2 construct: residues 34–302
T2 sequence (Q9NXA8 34-302): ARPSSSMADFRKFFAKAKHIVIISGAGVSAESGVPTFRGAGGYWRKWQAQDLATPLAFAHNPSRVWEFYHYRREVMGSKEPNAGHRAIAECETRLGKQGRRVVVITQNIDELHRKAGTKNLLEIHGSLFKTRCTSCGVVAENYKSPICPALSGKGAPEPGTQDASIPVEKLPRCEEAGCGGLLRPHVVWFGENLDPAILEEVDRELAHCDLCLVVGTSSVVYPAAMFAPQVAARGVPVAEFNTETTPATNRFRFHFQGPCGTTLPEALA

Sirt3 = target: T3, Sirt3 (Homo sapiens, UniProt Q9NTG7); assay: MS deacetylation assay with acetyl-ACS2 peptide; assay type: biochemical
T3 construct: residues 118–399
T3 sequence (Q9NTG7 118-399): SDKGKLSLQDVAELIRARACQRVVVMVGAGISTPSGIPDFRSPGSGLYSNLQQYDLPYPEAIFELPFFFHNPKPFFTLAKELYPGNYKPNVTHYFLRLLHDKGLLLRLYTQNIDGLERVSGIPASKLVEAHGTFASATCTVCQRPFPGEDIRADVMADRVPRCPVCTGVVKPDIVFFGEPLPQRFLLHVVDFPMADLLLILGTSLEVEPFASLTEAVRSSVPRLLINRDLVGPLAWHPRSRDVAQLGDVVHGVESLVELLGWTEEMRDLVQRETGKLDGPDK

Sirt6 [1] = target: T4, Sirt6 (Homo sapiens, UniProt Q8N6T7); assay: crystal structure ([…] Å in Table […]); MS deacetylation assay (activation); assay type: binding
T4 construct: Sirt6(13–308) for crystals; Sirt6(1-355) for activity

Sirt6 [2] = target: T4, Sirt6; assay: crystal structure at […] Å; MS deacetylation assay (activation at […]); assay type: binding

T4 sequence (Q8N6T7 whole entry): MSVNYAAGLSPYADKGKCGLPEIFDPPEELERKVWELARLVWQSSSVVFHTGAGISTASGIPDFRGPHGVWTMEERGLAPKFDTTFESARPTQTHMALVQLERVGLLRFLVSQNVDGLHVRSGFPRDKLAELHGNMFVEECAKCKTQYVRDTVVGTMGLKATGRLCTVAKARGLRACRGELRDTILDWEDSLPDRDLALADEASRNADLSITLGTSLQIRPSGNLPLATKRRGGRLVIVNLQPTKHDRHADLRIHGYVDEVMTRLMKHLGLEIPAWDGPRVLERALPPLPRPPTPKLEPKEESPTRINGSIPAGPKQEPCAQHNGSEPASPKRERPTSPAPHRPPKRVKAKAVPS

## O=c1c(O)c(-c2ccc(O)c(O)c2)oc2cc(O)cc(O)c12 [compound 1, quercetin]
Sirt1
  MS deacetylation assay with acetyl-p53 peptide: Quercetin caused a concentration-dependent inhibition of all Sirtuin isoforms except for Sirt6
Sirt5
  MS desuccinylation assay with succinyl-CPS1 peptide: Quercetin caused a concentration-dependent inhibition of all Sirtuin isoforms except for Sirt6
Sirt3
  MS deacetylation assay with acetyl-ACS2 peptide: Quercetin caused a concentration-dependent inhibition of all Sirtuin isoforms except for Sirt6

## O=c1c(O[C@@H]2O[C@H](CO)[C@@H](O)[C@H](O)[C@H]2O)c(-c2ccc(O)c(O)c2)oc2cc(O)cc(O)c12 [compound 4, isoquercetin]
Sirt6 [1]
  crystal structure (1.90 Å in Table 1); MS deacetylation assay (activation): we determined a crystal structure of a Sirt6/ADP-ribose/isoquercetin complex

## Oc1cc(O)c2cc(O)c(-c3ccc(O)c(O)c3)[o+]c2c1 [compound 6, cyanidin]
Sirt6 [2]
  crystal structure at 2.10 Å; MS deacetylation assay (activation at 20-80 μM): we solved a crystal structure of a Sirt6/ADP-ribose/cyanidin complex
